# Reference: ChEMBL document CHEMBL4765227, “Hit to lead optimization of a series of N-[4-(1,3-benzothiazol-2-yl)phenyl]acetamides as monoacylglycerol lipase inhibitors with potential anticancer activity” (Eur J Med Chem, 2016)
# Assays:
# Monoglyceride lipase [1] = target: T1, Monoglyceride lipase (Homo sapiens, UniProt Q99685); assay: Inhibition of human MAGL
# T1 sequence (Q99685 whole entry): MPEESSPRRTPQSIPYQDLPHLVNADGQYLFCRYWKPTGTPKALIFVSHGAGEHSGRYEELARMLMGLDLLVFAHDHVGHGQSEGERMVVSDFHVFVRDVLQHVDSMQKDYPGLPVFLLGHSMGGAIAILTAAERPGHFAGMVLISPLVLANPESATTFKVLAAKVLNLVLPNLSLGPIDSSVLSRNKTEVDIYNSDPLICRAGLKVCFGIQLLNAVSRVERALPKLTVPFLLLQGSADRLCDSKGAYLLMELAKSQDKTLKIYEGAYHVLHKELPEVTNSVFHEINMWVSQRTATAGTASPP
# Monoglyceride lipase [2] = target: T1, Monoglyceride lipase; assay: Inhibition of human MAGL using 4-Nitrophenylacetate as substrate
# Monoglyceride lipase [3] = target: T1, Monoglyceride lipase; assay: Inhibition of human MAGL transfected in human HEK293T cells assessed as reduction in ABPP binding by competitive binding assay; type: cell-based
# Monoglyceride lipase [4] = target: T1, Monoglyceride lipase; assay: Inhibition of MAGL (unknown origin)
smiles,measurement,setting,value
O=C(N1CCC(C(c2ccc3c(c2)OCO3)c2ccc3c(c2)OCO3)CC1)n1cncn1,IC50,Monoglyceride lipase [1],< 0.4 nM
COc1nn(-c2ccc(NC(=O)OCc3ccccc3)c(C)c2)c(=O)o1,IC50,Monoglyceride lipase [2],424 nM
O=C(OC(C(F)(F)F)C(F)(F)F)N1CCC(C(O)(c2ccc3c(c2)OCO3)c2ccc3c(c2)OCO3)CC1,IC50,Monoglyceride lipase [3],5.9 nM
CN(C)C(=O)n1nnc(Cc2ccc(-c3ccccc3)cc2)n1,IC50,Monoglyceride lipase [4],0.9 nM
CCCCNC(=O)Oc1ccc(C2=NCCS2)cc1,IC50,Monoglyceride lipase [4],31000 nM
O=C(CNc1ccc([N+](=O)[O-])cc1)Nc1ccc(-c2nc3ccccc3s2)cc1,IC50,Monoglyceride lipase [2],> 100000 nM
O=C(Nc1cccc(-c2ccccc2)c1)OC1CCCCC1,IC50,Monoglyceride lipase [4],28000 nM
